“Also recorded” adds a separate entry of the source.
Target: T1, dTAG-HA SLC38A2 (knock-in) (Homo sapiens, UniProt Q96QD8+Q96SW2)
T1 construct: SLC38A2 was selected for endogenous tagging at the N-terminus; endogenous in cells
Experiment: dTAG knock-in: degradation of endogenously tagged SLC38A2 induced by amino acid starvation
Format: cell-based
Source text: (A) dTAG knock-in: SLC38A2 was tagged at N-terminus with dTAG-HA. Blasticidn was used as the selection marker. Single cell clones were derived and characterized as previously described. Two representative clones, B7 and C9 are presented here.
(B) The expression of dTAG-HA SLC38A2 was induced by replacing the normal culture media with media deprived of amino acids and FBS. Expression of the endogenous SLC is induced rapidly and was monitored by immunofluorescence imaging and quantified by automated image analysis. Representative images are shown.
(C)The effect of amino acid starvation on dTAG-HA SLC38A2 expression in HAP1 cells. Cells were treated with 0.5 µM dTAG13 and/or media lacking amino acids/FBS for either 6 or 10 hours, after which expression and degradation were monitored via western blot.
(D) Immunofluorescence imaging of two different HAP1 clones expressing dTAG-HA SLC38A2. Cells were incubated in media lacking amino acids/FBS for 8 hours and treated with 0.5 µM dTAG13 for either 8 or 10 hours. Expression of the endogenous SLC is induced rapidly and was monitored by immunofluorescence and quantified by automated image analysis. Representative images are presented.
HEK293T, LS180 were obtained from ATCC (Manassas, VA, USA), HAP1 WT, HAP1 -/-SLC38A2 (HZGHC001975c003), HAP1 -/-SLC38A9 (HZGHC000777c011) were obtained from Horizon Genomics. […]
For immunoblotting, whole cell extracts were prepared using RIPA lysis buffer (25 mM Tris/HCl pH 7.6, 150 mM NaCl, 1% NP-40, 1% sodium deoxycholate, 0.1% SDS, EDTA-free protease inhibitor (Roche) and phosphatase inhibitors 2+3 (Sigma- Aldrich)). […] Protein extracts were quantified and normalized using the BCA assay (Thermo Scientific). […]

T1 sequence (Q96SW2 whole entry): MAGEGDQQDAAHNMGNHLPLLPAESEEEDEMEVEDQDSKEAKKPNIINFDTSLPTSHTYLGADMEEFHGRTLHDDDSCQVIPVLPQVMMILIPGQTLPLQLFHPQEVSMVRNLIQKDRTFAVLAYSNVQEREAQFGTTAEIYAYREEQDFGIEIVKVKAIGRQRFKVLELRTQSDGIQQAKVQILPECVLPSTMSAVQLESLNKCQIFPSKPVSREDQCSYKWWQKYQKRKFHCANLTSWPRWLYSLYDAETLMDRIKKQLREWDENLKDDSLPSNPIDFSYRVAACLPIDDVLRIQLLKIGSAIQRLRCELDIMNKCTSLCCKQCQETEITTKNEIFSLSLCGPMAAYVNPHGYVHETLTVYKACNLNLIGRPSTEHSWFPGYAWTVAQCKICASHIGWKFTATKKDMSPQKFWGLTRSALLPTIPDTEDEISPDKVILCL
T1 sequence (Q16531 whole entry, further chain): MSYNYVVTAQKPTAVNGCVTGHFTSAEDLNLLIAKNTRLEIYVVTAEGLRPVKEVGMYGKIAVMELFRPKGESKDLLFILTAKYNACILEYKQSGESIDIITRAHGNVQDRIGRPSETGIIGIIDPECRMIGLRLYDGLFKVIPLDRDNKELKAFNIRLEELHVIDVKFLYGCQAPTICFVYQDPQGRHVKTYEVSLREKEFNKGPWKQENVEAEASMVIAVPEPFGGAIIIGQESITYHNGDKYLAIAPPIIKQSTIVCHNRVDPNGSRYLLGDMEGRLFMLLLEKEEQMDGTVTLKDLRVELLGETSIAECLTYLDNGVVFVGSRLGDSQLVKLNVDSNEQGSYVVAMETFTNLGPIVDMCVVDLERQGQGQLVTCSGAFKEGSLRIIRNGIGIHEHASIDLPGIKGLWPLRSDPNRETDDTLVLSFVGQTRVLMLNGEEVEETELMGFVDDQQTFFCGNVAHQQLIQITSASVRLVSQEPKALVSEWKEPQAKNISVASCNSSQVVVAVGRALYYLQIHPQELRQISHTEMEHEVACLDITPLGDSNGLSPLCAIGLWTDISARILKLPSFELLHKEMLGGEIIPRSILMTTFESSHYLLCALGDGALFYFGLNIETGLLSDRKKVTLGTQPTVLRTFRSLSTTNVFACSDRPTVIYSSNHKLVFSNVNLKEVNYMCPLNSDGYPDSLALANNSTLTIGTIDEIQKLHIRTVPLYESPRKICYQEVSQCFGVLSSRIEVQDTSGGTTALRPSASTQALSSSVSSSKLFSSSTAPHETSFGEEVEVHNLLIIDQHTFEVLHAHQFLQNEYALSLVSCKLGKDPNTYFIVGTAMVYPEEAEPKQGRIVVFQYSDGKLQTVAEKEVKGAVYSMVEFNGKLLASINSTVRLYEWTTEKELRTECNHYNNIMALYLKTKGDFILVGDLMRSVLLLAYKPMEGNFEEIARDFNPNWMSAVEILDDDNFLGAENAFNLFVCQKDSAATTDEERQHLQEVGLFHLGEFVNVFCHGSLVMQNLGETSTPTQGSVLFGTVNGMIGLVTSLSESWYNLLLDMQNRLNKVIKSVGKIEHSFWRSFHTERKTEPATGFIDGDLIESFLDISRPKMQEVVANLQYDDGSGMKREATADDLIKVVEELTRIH
T1 sequence (Q96QD8 other isoform, or with tags, fused parts or gaps): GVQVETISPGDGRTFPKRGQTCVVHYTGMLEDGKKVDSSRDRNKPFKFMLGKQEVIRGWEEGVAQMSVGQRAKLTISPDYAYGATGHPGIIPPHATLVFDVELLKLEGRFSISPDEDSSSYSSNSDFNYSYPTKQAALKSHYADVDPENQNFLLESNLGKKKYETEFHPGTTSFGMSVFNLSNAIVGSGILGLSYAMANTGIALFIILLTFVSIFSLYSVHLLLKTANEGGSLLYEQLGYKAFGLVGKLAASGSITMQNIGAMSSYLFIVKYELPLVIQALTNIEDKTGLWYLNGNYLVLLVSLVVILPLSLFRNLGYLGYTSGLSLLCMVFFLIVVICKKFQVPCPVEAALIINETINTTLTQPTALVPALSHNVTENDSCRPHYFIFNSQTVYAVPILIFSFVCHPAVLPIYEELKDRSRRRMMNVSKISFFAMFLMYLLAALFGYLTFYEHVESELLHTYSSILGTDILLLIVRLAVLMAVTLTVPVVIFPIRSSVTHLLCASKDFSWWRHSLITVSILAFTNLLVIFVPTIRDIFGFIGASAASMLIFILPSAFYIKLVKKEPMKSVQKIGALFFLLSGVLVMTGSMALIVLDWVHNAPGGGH

## CC[C@H](C(=O)N1CCCC[C@H]1C(=O)O[C@H](CCc1ccc(OC)c(OC)c1)c1ccccc1OCC(=O)NCCCCCCOc1cccc2c1C(=O)N(C1CCC(=O)NC1=O)C2=O)c1cc(OC)c(OC)c(OC)c1 (stereo partly drawn) [dTAG13]
HAP1, 0.5 µM cotreatment with media lacking amino acids/FBS, 6 or 10 hours
  degradation of knock-in dTAG-HA SLC38A2 (western blot): Near complete degradation
HAP1 knock-in clones, 0.5 µM, 2 hours pre-treatment, 8 hours starvation
  SLC38A2 expression after pre-treatment (immunofluorescence, automated image analysis): completely abrogate any SLC expression; also recorded: completely ablated
HAP1 knock-in clones, 0.5 µM, co-treatment with starvation 8 hours
  reduction of SLC38A2 expression by co-treatment: more than 50%
